Values quoted from earlier work in patent publication US7208487B2, “Compounds, compositions and methods” (Cytokinetics, Incorporated, priority 2002, dated 2007).

System: A549 cells

Row | GI50 | SMILES
1 | 1000 nM | O=c1[nH]cc(F)c(=O)[nH]1 [5-fluorouracil]
2 | 63 nM | COc1cccc2c1C(=O)c1c(O)c3c(c(O)c1C2=O)C[C@@](O)(C(=O)CO)C[C@@H]3O[C@H]1C[C@H](N)[C@H](O)[C@H](C)O1 [doxorubicin]
3 | 500000 nM | NC(=O)NO [hydroxyurea]
4 | 4 nM | CC(=O)O[C@H]1C(=O)[C@@]2(C)[C@H]([C@H](OC(=O)c3ccccc3)[C@]3(O)C[C@H](OC(=O)[C@H](O)[C@@H](NC(=O)c4ccccc4)c4ccccc4)C(C)=C1C3(C)C)[C@]1(OC(C)=O)CO[C@@H]1C[C@@H]2O [paclitaxel]
